In patent US20040006070A1, “Intraspinal continuous infusion of midazolam hydrochloride for the treatment of pain” (priority 2002, published 2004):
Where a name gives a salt, the structure may show the parent alone.

Test: Bloodwork: complete blood count, electrolytes, extended blood chemistry
Type: in vivo, sheep
Procedure: Indirect blood pressure, pulse recording, pain testing (mechanical stimulus device, cold and warm water baths see description in procedure) and weight were taken on days 1, 3, 7, 15, 22, 29, 36, and 43. Venous blood samples (15 ml drawn from the jugular vein with Vacutainer brand blood collection tubes) for complete blood count, electrolytes, and extended blood chemistry were drawn on days 1, 15, and 43 (mild procedure only light hand restraint necessary).

[1] = sheep #84 Roadrunner, 15 mg/day, Day 1
[2] = sheep #84 Roadrunner, 15 mg/day, Day 15
[3] = sheep #84 Roadrunner, 15 mg/day, Day 43

Structure (SMILES): Cc1ncc2n1-c1ccc(Cl)cc1C(c1ccccc1F)=NC2 [Midazolam, midazolam hydrochloride]
- Total Bili [1]: 0.3 mg/dL
- Total Prot [1]: 5.9 g/dL
- WBC [1]: 5390 µL⁻¹
- ALT [2]: 2 U/L
- AST [2]: 60 U/L
- Albumin [2]: 3.7 g/dL
- Alk Phos [2]: 98 U/L
- BUN [2]: 11 mg/dL
- CPK [2]: 53 U/L
- Cholesterol [2]: 56 mg/dL
- Creatinine [2]: 1.3 mg/dL
- Differential Count: Eosin [2]: 12%
- Differential Count: Lymph [2]: 44%
- Differential Count: Seg [2]: 44%
- Gamma GT [2]: 62 U/L
- Glucose [2]: 66 mg/dL
- Hct [2]: 31.8%
- Hgb [2]: 10.8 g/dL
- K+ [2]: 4.8 mEq/l
- MCH [2]: 10.8 pg
- MCHC [2]: 34.0 g/dL
- MCV [2]: 31.8 fL
- Na+ [2]: 150 mEq/l
- Phos [2]: 6.6 mg/dL
- Platlet Count [2]: 848000 µL⁻¹
- RBC [2]: 1e+07 µL⁻¹
- Total Bili [2]: 0.1 mg/dL
- Total Prot [2]: 6.4 g/dL
- WBC [2]: 5130 µL⁻¹
- ALT [3]: 7 U/L
- AST [3]: 65 U/L
- Albumin [3]: 3.54 g/dL
- Alk Phos [3]: 143 U/L
- BUN [3]: 11 mg/dL
- CPK [3]: 102 U/L
- Cholesterol [3]: 57 mg/dL
- Creatinine [3]: 1.2 mg/dL
- Differential Count: Atyp lym [3]: 1%
- Differential Count: Eosin [3]: 2%
- Differential Count: Lymph [3]: 67%
- Differential Count: Mono [3]: 1%
- Differential Count: Seg [3]: 29%
- Gamma GT [3]: 56 U/L
- Glucose [3]: 74 mg/dL
- Hct [3]: 35.0%
- Hgb [3]: 11.9 g/dL
- K+ [3]: 4.6 mEq/l
- MCH [3]: 11.8 pg
- MCHC [3]: 34.0 g/dL
- MCV [3]: 34.7 fL
- Na+ [3]: 149 mEq/l
- Phos [3]: 7.1 mg/dL
- Platlet Count [3]: 727000 µL⁻¹
- RBC [3]: 1.01e+07 µL⁻¹
- Total Bili [3]: 0.1 mg/dL
- Total Prot [3]: 6.0 g/dL
- WBC [3]: 5150 µL⁻¹
- ALT (sheep #85, 15 mg/day, Day 1): 7 U/L
- AST (sheep #85, 15 mg/day, Day 1): 76 U/L
- Alk Phos (sheep #85, 15 mg/day, Day 1): 50 U/L
- BUN (sheep #85, 15 mg/day, Day 1): 10 mg/dL
- CPK (sheep #85, 15 mg/day, Day 1): 99 U/L
- Cholesterol (sheep #85, 15 mg/day, Day 1): 52 mg/dL
- Differential Count: Baso (sheep #85, 15 mg/day, Day 1): 1%
- Differential Count: Eosin (sheep #85, 15 mg/day, Day 1): 1%
- Differential Count: Lymph (sheep #85, 15 mg/day, Day 1): 22%
- Differential Count: Mono (sheep #85, 15 mg/day, Day 1): 1%
- Differential Count: Seg (sheep #85, 15 mg/day, Day 1): 75%
- Gamma GT (sheep #85, 15 mg/day, Day 1): 68 U/L
- Glucose (sheep #85, 15 mg/day, Day 1): 75 mg/dL
- Hct (sheep #85, 15 mg/day, Day 1): 28.0%
- Hgb (sheep #85, 15 mg/day, Day 1): 9.2 g/dL
- MCH (sheep #85, 15 mg/day, Day 1): 10.7 pg
- MCHC (sheep #85, 15 mg/day, Day 1): 32.8 g/dL
- MCV (sheep #85, 15 mg/day, Day 1): 32.7 fL
- Na+ (sheep #85, 15 mg/day, Day 1): 149 mEq/l
- Platlet Count (sheep #85, 15 mg/day, Day 1): 994000 µL⁻¹
- RBC (sheep #85, 15 mg/day, Day 1): 8.57e+06 µL⁻¹
- WBC (sheep #85, 15 mg/day, Day 1): 4780 µL⁻¹
- Total Bili (sheep #85, 15 mg/day, Day 1, ref 0.14-0.32): 0.1 mg/dL
- Creatinine (sheep #85, 15 mg/day, Day 1, ref 1-2.7): 1.4 mg/dL
- Albumin (sheep #85, 15 mg/day, Day 1, ref 2.4-3): 3.4 g/dL
- K+ (sheep #85, 15 mg/day, Day 1, ref 3.9-5.4): 4.7 mEq/l
- Phos (sheep #85, 15 mg/day, Day 1, ref 5-7.3): 5.3 mg/dL
- Total Prot (sheep #85, 15 mg/day, Day 1, ref 6-7.9): 6.1 g/dL
- ALT (sheep #85, 15 mg/day, Day 15): 10 U/L
- AST (sheep #85, 15 mg/day, Day 15): 56 U/L
- Alk Phos (sheep #85, 15 mg/day, Day 15): 54 U/L
- BUN (sheep #85, 15 mg/day, Day 15): 17 mg/dL
- CPK (sheep #85, 15 mg/day, Day 15): 56 U/L
- Cholesterol (sheep #85, 15 mg/day, Day 15): 58 mg/dL
- Differential Count: Eosin (sheep #85, 15 mg/day, Day 15): 12%
- Differential Count: Lymph (sheep #85, 15 mg/day, Day 15): 44%
- Differential Count: Seg (sheep #85, 15 mg/day, Day 15): 44%
- Gamma GT (sheep #85, 15 mg/day, Day 15): 54 U/L
- Hct (sheep #85, 15 mg/day, Day 15): 31.8%
- Hgb (sheep #85, 15 mg/day, Day 15): 10.8 g/dL
- MCH (sheep #85, 15 mg/day, Day 15): 10.8 pg
- MCHC (sheep #85, 15 mg/day, Day 15): 34.0 g/dL
- MCV (sheep #85, 15 mg/day, Day 15): 31.8 fL
- Na+ (sheep #85, 15 mg/day, Day 15): 148 mEq/l
- Platlet Count (sheep #85, 15 mg/day, Day 15): 848000 µL⁻¹
- RBC (sheep #85, 15 mg/day, Day 15): 1e+07 µL⁻¹
- WBC (sheep #85, 15 mg/day, Day 15): 5130 µL⁻¹
- Total Bili (sheep #85, 15 mg/day, Day 15, ref 0.14-0.32): 0.0 mg/dL
- Creatinine (sheep #85, 15 mg/day, Day 15, ref 1-2.7): 1.2 mg/dL
- Albumin (sheep #85, 15 mg/day, Day 15, ref 2.4-3): 2.8 g/dL
- K+ (sheep #85, 15 mg/day, Day 15, ref 3.9-5.4): 5.0 mEq/l
- Phos (sheep #85, 15 mg/day, Day 15, ref 5-7.3): 6.0 mg/dL
- Total Prot (sheep #85, 15 mg/day, Day 15, ref 6-7.9): 5.4 g/dL
- ALT (sheep #85, 15 mg/day, Day 43): 8 U/L
- AST (sheep #85, 15 mg/day, Day 43): 59 U/L
- Alk Phos (sheep #85, 15 mg/day, Day 43): 92 U/L
- BUN (sheep #85, 15 mg/day, Day 43): 13 mg/dL
- CPK (sheep #85, 15 mg/day, Day 43): 81 U/L
- Cholesterol (sheep #85, 15 mg/day, Day 43): 72 mg/dL
- Differential Count: Eosin (sheep #85, 15 mg/day, Day 43): 4%
- Differential Count: Lymph (sheep #85, 15 mg/day, Day 43): 75%
- Differential Count: Mono (sheep #85, 15 mg/day, Day 43): 3%
- Differential Count: Seg (sheep #85, 15 mg/day, Day 43): 18%
- Gamma GT (sheep #85, 15 mg/day, Day 43): 60 U/L
- Glucose (sheep #85, 15 mg/day, Day 43): 76 mg/dL
- Hct (sheep #85, 15 mg/day, Day 43): 34.7%
- Hgb (sheep #85, 15 mg/day, Day 43): 11.9 g/dL
- MCH (sheep #85, 15 mg/day, Day 43): 12.6 pg
- MCHC (sheep #85, 15 mg/day, Day 43): 34.1 g/dL
- MCV (sheep #85, 15 mg/day, Day 43): 36.8 fL
- Na+ (sheep #85, 15 mg/day, Day 43): 148 mEq/l
- Platlet Count (sheep #85, 15 mg/day, Day 43): 604000 µL⁻¹
- RBC (sheep #85, 15 mg/day, Day 43): 9.44e+06 µL⁻¹
- WBC (sheep #85, 15 mg/day, Day 43): 3130 µL⁻¹
- Total Bili (sheep #85, 15 mg/day, Day 43, ref 0.14-0.32): 0.1 mg/dL
- Creatinine (sheep #85, 15 mg/day, Day 43, ref 1-2.7): 1.3 mg/dL
- Albumin (sheep #85, 15 mg/day, Day 43, ref 2.4-3): 3.6 g/dL
- K+ (sheep #85, 15 mg/day, Day 43, ref 3.9-5.4): 4.9 mEq/l
- Phos (sheep #85, 15 mg/day, Day 43, ref 5-7.3): 7.1 mg/dL
- Total Prot (sheep #85, 15 mg/day, Day 43, ref 6-7.9): 6.4 g/dL
- ALT (sheep #91, 15 mg/day, Day 1): 7 U/L
- AST (sheep #91, 15 mg/day, Day 1): 61 U/L
- Alk Phos (sheep #91, 15 mg/day, Day 1): 132 U/L
- BUN (sheep #91, 15 mg/day, Day 1): 9 mg/dL
- CPK (sheep #91, 15 mg/day, Day 1): 52 U/L
- Cholesterol (sheep #91, 15 mg/day, Day 1): 47 mg/dL
- Differential Count: Eosin (sheep #91, 15 mg/day, Day 1): 1%
- Differential Count: Lymph (sheep #91, 15 mg/day, Day 1): 21%
- Differential Count: Mono (sheep #91, 15 mg/day, Day 1): 2%
- Differential Count: Seg (sheep #91, 15 mg/day, Day 1): 76%
- Gamma GT (sheep #91, 15 mg/day, Day 1): 51 U/L
